How the values were obtained:
[1] = biological target: Kelch domain of human KEAP1 (321-624 aa) (Homo sapiens (Human), UniProt Q14145); test: KEAP1 KELCH ThermoFluor binding assay; conditions: KEAP Kelch […], 1,8-ANS, pH 7.0, average of results obtained, read-out: Tf Kd;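 further: Ligand-induced melting temperature shift of E. coli-expressed KEAP1 Kelch protein, Kd estimated from concentration-response curves of ΔTm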
[2] = tested on: Glo-Response ARE-luc2P HEK293 cell line; test: ARE luciferase reporter cell-based assay; conditions: Homo sapiens, HEK293, 24 h, average of results obtained;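 further: luciferase signal tracks Nrf2 activation of the ARE once compounds disrupt KEAP1-Nrf2 binding, read with One-Glo reagent, DMSO serving as low control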

Kelch domain of human KEAP1 (321-624 aa), sequence (Q14145 321-624): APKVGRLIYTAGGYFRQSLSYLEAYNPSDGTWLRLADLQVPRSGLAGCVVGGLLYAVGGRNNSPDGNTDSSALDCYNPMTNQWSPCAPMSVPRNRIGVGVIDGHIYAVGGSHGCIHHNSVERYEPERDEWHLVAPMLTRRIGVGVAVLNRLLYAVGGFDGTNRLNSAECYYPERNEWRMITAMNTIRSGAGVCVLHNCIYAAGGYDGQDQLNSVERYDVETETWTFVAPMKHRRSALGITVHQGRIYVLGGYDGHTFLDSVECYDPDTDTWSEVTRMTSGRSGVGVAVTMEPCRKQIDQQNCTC

SMILES | Kd [1] | EC50 [2]
Cc1ccc([C@H](c2ccn3c(C(F)F)nnc3c2C)C(C)(C)C(=O)O)cc1CN1CC2(CCOCC2)Oc2nc(OCCN3CCOCC3)ccc2S1(=O)=O (single isomer, unassigned) [Example 580, (*R)-3-(3-(Difluoromethyl)-8-methyl-[1,2,4]triazolo[4,3-a]pyridin-7-yl)-2,2-dimethyl-3-(4-methyl-3-((7′-(2-morpholinoethoxy)-1′,1′-dioxido-2,3,5,6-tetrahydrospiro[pyran-4,4′-pyrido[2,3-b][1,4,5]oxathiazepin]-2′(3′H)-yl)methyl)phenyl)propanoic Acid] | 1640 nM | 3240 nM
COc1ccc2c(n1)OC1(CCOCC1)CN(Cc1cc([C@@H](c3ccn4c(C(F)F)nnc4c3C)C(C)(C)C(=O)O)ccc1C)S2(=O)=O (single isomer, unassigned) [Example 582, (*S)-3-(3-(Difluoromethyl)-8-methyl-[1,2,4]triazolo[4,3-a]pyridin-7-yl)-3-(3-((7′-methoxy-1′,1′-dioxido-2,3,5,6-tetrahydrospiro[pyran-4,4′-pyrido[2,3-b][1,4,5]oxathiazepin]-2′(3′H)-yl)methyl)-4-methylphenyl)-2,2-dimethylpropanoic Acid] | < 1 nM | 1.43 nM
COc1ccc2c(n1)OC1(CCOCC1)CN(Cc1cc([C@H](c3ccn4c(C(F)F)nnc4c3C)C(C)(C)C(=O)O)ccc1C)S2(=O)=O (single isomer, unassigned) [Example 583, (*R)-3-(3-(Difluoromethyl)-8-methyl-[1,2,4]triazolo[4,3-a]pyridin-7-yl)-3-(3-((7′-methoxy-1′,1′-dioxido-2,3,5,6-tetrahydrospiro[pyran-4,4′-pyrido[2,3-b][1,4,5]oxathiazepin]-2′(3′H)-yl)methyl)-4-methylphenyl)-2,2-dimethylpropanoic Acid] | 1610 nM | 766 nM
Cc1cnc2c(c1)S(=O)(=O)N(Cc1cc([C@H](c3ccn4c(C(F)(F)F)nnc4c3C)C(C)(C)C(=O)O)cnc1C)CC1(CCOCC1)O2 (single isomer, unassigned) [Example 585, (*S)-2,2-Dimethyl-3-(8-methyl-3-(trifluoromethyl)-[1,2,4]triazolo[4,3-a]pyridin-7-yl)-3-(6-methyl-5-((8′-methyl-1′,1′-dioxido-2,3,5,6-tetrahydrospiro[pyran-4,4′-pyrido[2,3-b][1,4,5]oxathiazepin]-2′(3′H)-yl)methyl)pyridin-3-yl)propanoic Acid] | < 1 nM | 253 nM
Cc1cnc([C@@H](c2ccn3c(C(F)(F)F)nnc3c2C)C(C)(C)C(=O)O)cc1CN1CC2(CC2)Oc2nc(OCCN3CCCC3)c(C)cc2S1(=O)=O (single isomer, unassigned) [Example 590, (*S)-2,2-Dimethyl-3-(8-methyl-3-(trifluoromethyl)-[1,2,4]triazolo[4,3-a]pyridin-7-yl)-3-(5-methyl-4-((8′-methyl-1′,1′-dioxido-7′-(2-(pyrrolidin-1-yl)ethoxy)spiro[cyclopropane-1,4′-pyrido[2,3-b][1,4,5]oxathiazepin]-2′(3′H)-yl)methyl)pyridin-2-yl)propanoic Acid] | < 1 nM | 33.2 nM
Cc1cnc([C@@H](c2ccn3c(C(F)(F)F)nnc3c2C)C(C)(C)C(=O)O)cc1CN1CC2(CC2)Oc2nc(OCCN3CCCCC3)c(C)cc2S1(=O)=O (single isomer, unassigned) [Example 592, (*S)-2,2-Dimethyl-3-(8-methyl-3-(trifluoromethyl)-[1,2,4]triazolo[4,3-a]pyridin-7-yl)-3-(5-methyl-4-((8′-methyl-1′,1′-dioxido-7′-(2-(piperidin-1-yl)ethoxy)spiro[cyclopropane-1,4′-pyrido[2,3-b][1,4,5]oxathiazepin]-2′(3′H)-yl)methyl)pyridin-2-yl)propanoic Acid] | < 1 nM | 17.6 nM
Cc1cnc([C@@H](c2ccn3c(C(F)(F)F)nnc3c2C)C(C)(C)C(=O)O)cc1CN1CC2(CCOCC2)Oc2nc(OCCN3CCCC3)c(C)cc2S1(=O)=O (single isomer, unassigned) [Example 593, (*S)-2,2-Dimethyl-3-(8-methyl-3-(trifluoromethyl)-[1,2,4]triazolo[4,3-a]pyridin-7-yl)-3-(5-methyl-4-((8′-methyl-1′,1′-dioxido-7′-(2-(pyrrolidin-1-yl)ethoxy)-2,3,5,6-tetrahydrospiro[pyran-4,4′-pyrido[2,3-b][1,4,5]oxathiazepin]-2′(3′H)-yl)methyl)pyridin-2-yl)propanoic Acid] | < 1 nM | 89.7 nM

Now from value to compound, other results behind:

Kd [1] | SMILES | EC50 [2]
6380 nM | Cc1cnc2c(c1)S(=O)(=O)N(Cc1cc([C@@H](c3ccn4c(C(F)(F)F)nnc4c3C)C(C)(C)C(=O)O)cnc1C)CC1(CCOCC1)O2 (single isomer, unassigned) [Example 586, (*R)-2,2-Dimethyl-3-(8-methyl-3-(trifluoromethyl)-[1,2,4]triazolo[4,3-a]pyridin-7-yl)-3-(6-methyl-5-((8′-methyl-1′,1′-dioxido-2,3,5,6-tetrahydrospiro[pyran-4,4′-pyrido[2,3-b][1,4,5]oxathiazepin]-2′(3′H)-yl)methyl)pyridin-3-yl)propanoic Acid] | > 20000 nM
< 1 nM | Cc1cnc2c(c1)S(=O)(=O)N(Cc1cc([C@@H](c3ccn4c(C(F)(F)F)nnc4c3C)C(C)(C)C(=O)O)ncc1C)CC1(CC1)O2 (single isomer, unassigned) [Example 588, (*S)-2,2-Dimethyl-3-(8-methyl-3-(trifluoromethyl)-[1,2,4]triazolo[4,3-a]pyridin-7-yl)-3-(5-methyl-4-((8′-methyl-1′,1′-dioxidospiro[cyclopropane-1,4′-pyrido[2,3-b][1,4,5]oxathiazepin]-2′(3′H)-yl)methyl)pyridin-2-yl)propanoic Acid] | 7.64 nM
1450 nM | Cc1cnc2c(c1)S(=O)(=O)N(Cc1cc([C@H](c3ccn4c(C(F)(F)F)nnc4c3C)C(C)(C)C(=O)O)ncc1C)CC1(CC1)O2 (single isomer, unassigned) [Example 589, (*R)-2,2-Dimethyl-3-(8-methyl-3-(trifluoromethyl)-[1,2,4]triazolo[4,3-a]pyridin-7-yl)-3-(5-methyl-4-((8′-methyl-1′,1′-dioxidospiro[cyclopropane-1,4′-pyrido[2,3-b][1,4,5]oxathiazepin]-2′(3′H)-yl)methyl)pyridin-2-yl)propanoic Acid] | 1970 nM
< 1 nM | Cc1cnc2c(c1)S(=O)(=O)N(Cc1cc([C@@H](c3ccn4c(C(F)(F)F)nnc4c3C)C(C)(C)C(=O)O)ncc1C)CC1(CCOCC1)O2 (single isomer, unassigned) [Example 591, (*S)-2,2-Dimethyl-3-(8-methyl-3-(trifluoromethyl)-[1,2,4]triazolo[4,3-a]pyridin-7-yl)-3-(5-methyl-4-((8′-methyl-1′,1′-dioxido-2,3,5,6-tetrahydrospiro[pyran-4,4′-pyrido[2,3-b][1,4,5]oxathiazepin]-2′(3′H)-yl)methyl)pyridin-2-yl)propanoic Acid] | 26.1 nM
< 1 nM | CCn1nnc2c(C)c([C@H](c3cc(CN4CC5(CC5)Oc5ncc(C)cc5S4(=O)=O)c(C)cn3)C(C)(C)C(=O)O)ccc21 (single isomer, unassigned) [Example 594, (*S)-3-(1-Ethyl-4-methyl-1H-benzo[d][1,2,3]triazol-5-yl)-2,2-dimethyl-3-(5-methyl-4-((8′-methyl-1′,1′-dioxidospiro[cyclopropane-1,4′-pyrido[2,3-b][1,4,5]oxathiazepin]-2′(3′H)-yl)methyl)pyridin-2-yl)propanoic Acid] | 3.3 nM

Source: patent US10947252B2, “Inhibitors of KEAP1-Nrf2 protein-protein interaction” (Janssen Pharmaceutica NV, priority 2018, dated 2021)
